Experiments:
[1] = system: patients with a diagnosis of fibromyalgia; conditions: cited from earlier work
[2] = system: subjects fed a high-fat diet; conditions: daily administration, Pruet-Marcassus et al., 2003; cited from earlier work
middle-aged male rats = conditions: cited from earlier work
[3] = system: patients with a diagnosis of migraine with or without aura; conditions: daily treatment; Peres et al., 2004; cited from earlier work
male Sprague-Dawley rats = test: open field test; type: in vivo; conditions: for rearing behavior compared to vehicle controls: FIG. 1; for immobility compared to controls: FIG. 2
Procedure: Subjects were male Sprague-Dawley rats weighing 250-300 g housed in a temperature- and humidity-controlled vivarium on a 12:12 hr light:dark cycle with food and water available ad libitum. Behavioral testing occurred 2 hrs after lights out. […] All treatments were administered to an animal once (no repeat drug administration) with 8 animals per treatment. The open filed testing procedure has been previously described (Herman et al., 2003). Briefly, the open field apparatus is a 36×36-inch white PLEXIGLAS® enclosure, divided into 36 squares of equal size. Animals are placed into the apparatus and allowed to explore the environment for 5 min. Sessions are videotaped and scored for behavior by an investigator blinded to the treatment condition. Behavior is scored for the two primary outcome measures: rearing and immobility, as well as grooming; and secondary measures of sedation: total mobility and quadrant crossing.

humans = conditions: 20 mg to 100 mg per day, Zemlan et al., 2005; cited from earlier work
melatonin receptors = conditions: Mulchahey, et al., 2004; cited from earlier work
TBI rats = test: traumatic brain injury, controlled cortical impact model; type: in vivo; conditions: 10 mg/kg intraperitoneally, two doses (15 minutes and 24 hours after TBI), Day 7 morphometry, P=0.01, FIG. 3
Source text: Subjects were male Sprague-Dawley rats weighing 250-300 g housed in a temperature- and humidity-controlled vivarium on a 12:12 hr light:dark cycle with food and water available ad libitum. Animals were subjected to TBI using controlled cortical impact model. (Sullivan et al. 2000a). Animals were anesthetized and their brain cortex exposed. Employing a pneumatically-controlled impactor rod with a 5 mm diameter beveled tip, one of the cortices was compressed at 3.5 m/sec to a predetermined depth of 1.5 mm, resulting in TBI. The other cortex was not injured and left intact. Following the experimental TBI protocol, the animals were randomly divided into two groups and were either treated with vehicle or 10 mg/kg of β-methyl-6-chloromelatonin intraperitoneally (two doses; first dose 15 minutes after TBI and the second 24 hours later). The animals were allowed to recover for 168 hours (seven days). On Day 7, quantitative morphometric image analysis was employed to assess cortical tissue damage. Quantitative morphometry is considered to be the “gold standard” for assessing neuroprotectant drug efficacy in TBI (Sullivan et al., 1999; Sullivan et al., 2000a; Sullivan et al., 2000b).

[4] = system: TNF-α stimulated EOC-20 cells; test: nitrite and PGE2 in TNF-α stimulated EOC-20 microglial cells; type: cell-based; conditions: 20 ng/ml TNF-α-stimulated EOC-20 cells, dose-dependent manner
Source text: The compounds of the present invention are effective in treating neurodegenerative diseases, such as amyotrophic lateral sclerosis (ALS), Alzheimer's disease (AD), Huntington's disease (HD) and Parkinson's disease (PD).
The experiments consisted of treating TNF-α stimulated EOC-20 cells with increasing concentrations of β-methyl-6-chloromelatonin followed by measuring neuroinflammation-associated markers. Neuroinflammation activates microglia to produce proinflammatory cytokines, reactive oxygen species (ROS) and reactive nitrogen species (RNS) in ALS, AD, HD and PD-associated pathophysiology (Deckel, 2001; Cacquevel, 2004; McGeer and McGeer, 2004; Sargsyanet al., 2005). Increase in prostaglandin (PGE2), a potent inflammatory mediator, and nitrite, an indirect measure of RNS production, indicates inflammation-induced neurodegeneration in ALS, AD, HD and PD patients (Milstien et al., 1994; Tohgi et al., 1999; Deckel, 2001 ;Cacquevel, 2004).

IHI mice = test: ischemia-hypoxia injury (IHI) model of cerebrovascular disease; type: in vivo; conditions: 10 and 100 mg/kg intraperitoneally 30 minutes before and 30 minutes after hypoxia, Day 3, dose-dependent, FIG. 6
Procedure: Subjects were 8-12 week old adult male C57B116 mice housed in a temperature- and humidity-controlled vivarium on a 12:12 hr light:dark cycle with food and water available ad libitum. The mice were subjected to ischemia-hypoxia injury (IHI). The injury was rendered by permanently occluding the right common carotid artery and delivering hypoxic gas (7.5% O2) for 30 minutes employing a gas mask under anesthesia. The animal's body temperature was maintained at 36.5-37.5° C. throughout the experiment. For drug efficacy studies, β-methyl-6-chloro-melatonin was administered intraperitoneally 30 minutes before and 30 minutes after hypoxia at doses of 0 (vehicle only), 10 and 100 mg/kg. On Day 3 after injury, quantitative morphometric image analysis was employed to assess infarction size in Nissl-stained brain sections isolated from the animals. β-methyl-6-chloromelatonin administration caused a 33-40% reduction in brain infarct size in IHI mice compared to vehicle-treated IHI mice (FIG. 6). The protection conferred by β-methyl-6-chloromelatonin was dose-dependent.

[5] = 10 mg/kg i.p. 1 hr prior to open field testing
[6] = 100 mg/kg i.p. 1 hr prior to open field testing
[7] = 10 and 100 mg/kg i.p., P values>0.10

COc1ccc2[nH]cc(CCNC(C)=O)c2c1 [melatonin]
core symptoms of fibromyalgia (severity of pain, tender point count, patient and physician ratings) ([1]; 20 patients treated for 30 days, Citera et al., 2000): Significant improvement
patient-reported improvement including lack of pain and fatigue ([1]; daily treatment, end of treatment, Acuna-Castroviejo et al., 2006): significant improvement
body weight [2]: significantly decreased
body weight (middle-aged male rats; daily treatment, middle-aged obesity, Rasmussen et al., 1999): significantly decreased
fat content (middle-aged male rats; middle-age obesity, as opposed to lean body mass): significant decrease
headache frequency [3]: significant decrease
headache intensity [3]: decrease

COc1cc2c([C@@H](C)CNC(C)=O)c[nH]c2cc1Cl [β-methyl-6-chloromelatonin, (R)-N-[2-(6-chloro-5-methoxy-1H-indol-3-yl)propyl]acetamide]
rearing behavior compared to vehicle controls (male Sprague-Dawley rats; [5]): significantly increased
immobility compared to controls (male Sprague-Dawley rats; [5]): significantly decreased
rearing behavior compared to vehicle controls (male Sprague-Dawley rats; [6]): significantly increased
immobility compared to controls (male Sprague-Dawley rats; [6]): significantly decreased
sedative effect: quadrant crossings (male Sprague-Dawley rats; [7]): no significant drug effect
sedative effect: total mobility (male Sprague-Dawley rats; [7]): no significant drug effect
side effects compared to placebo treatment (humans): no significant side effects
binding to melatonin receptors (melatonin receptors): high affinity
reduction in damaged cortical tissue compared to vehicle-treated TBI rats (TBI rats): 68%
nitrite production ([4]; P<0.01, FIG. 4): blocked
increase in PGE2 levels ([4]; P<0.01, FIG. 5): blocked
reduction in brain infarct size compared to vehicle-treated IHI mice (IHI mice): 33-40%

Source: patent US20060223877A1, “Methods of treatment utilizing certain melatonin derivatives” (priority 2005, published 2006)
